In PubChem BioAssay AID1259407 (Chemical Carcinogenesis Research Information System (CCRIS), 2018):
Active and inactive are the calls of the source. How the calls were made is not given here.

Tested on: CCRIS mutagenicity, Ames/micronucleus/aberration tests
Test: CCRIS mutagenicity studies
[1] = Test System: AMES SALMONELLA TYPHIMURIUM, Strain/Indicator: TA98, Metabolic Activation: NONE, Method: PREINCUBATION
[2] = Test System: AMES SALMONELLA TYPHIMURIUM, Strain/Indicator: TA100, Metabolic Activation: NONE, Method: PREINCUBATION
[3] = Test System: AMES SALMONELLA TYPHIMURIUM, Strain/Indicator: TA98, Metabolic Activation: RAT, LIVER, S-9, AROCLOR 1254, Method: STANDARD PLATE
[4] = Test System: AMES SALMONELLA TYPHIMURIUM, Strain/Indicator: TA1538, Metabolic Activation: RAT, LIVER, S-9, AROCLOR 1254, Method: STANDARD PLATE
[5] = Test System: AMES SALMONELLA TYPHIMURIUM, Strain/Indicator: TA100, Metabolic Activation: NONE, Method: STANDARD PLATE

Measured: mutagenic call

O=C1c2ccccc2C(=O)C1(O)O
inactive: Test System: AMES SALMONELLA TYPHIMURIUM, Strain/Indicator: TA97, Metabolic Activation: HAMSTER, LIVER, S-9, AROCLOR 1254 (10%), Method: PREINCUBATION inactive; negative | Test System: AMES SALMONELLA TYPHIMURIUM, Strain/Indicator: TA97, Metabolic Activation: HAMSTER, LIVER, S-9, AROCLOR 1254 (30%), Method: PREINCUBATION inactive; negative | Test System: AMES SALMONELLA TYPHIMURIUM, Strain/Indicator: TA97, Metabolic Activation: NONE, Method: PREINCUBATION inactive; negative | Test System: AMES SALMONELLA TYPHIMURIUM, Strain/Indicator: TA97, Metabolic Activation: RAT, LIVER, S-9, AROCLOR 1254 (10%), Method: PREINCUBATION inactive; negative | Test System: AMES SALMONELLA TYPHIMURIUM, Strain/Indicator: TA97, Metabolic Activation: RAT, LIVER, S-9, AROCLOR 1254 (30%), Method: PREINCUBATION inactive; negative | Test System: AMES SALMONELLA TYPHIMURIUM, Strain/Indicator: TA98, Metabolic Activation: HAMSTER, LIVER, S-9, AROCLOR 1254 (10%), Method: PREINCUBATION inactive; negative | Test System: AMES SALMONELLA TYPHIMURIUM, Strain/Indicator: TA98, Metabolic Activation: HAMSTER, LIVER, S-9, AROCLOR 1254 (30%), Method: PREINCUBATION inactive; negative | [1] inactive; negative | Test System: AMES SALMONELLA TYPHIMURIUM, Strain/Indicator: TA98, Metabolic Activation: RAT, LIVER, S-9, AROCLOR 1254 (10%), Method: PREINCUBATION inactive; negative | Test System: AMES SALMONELLA TYPHIMURIUM, Strain/Indicator: TA98, Metabolic Activation: RAT, LIVER, S-9, AROCLOR 1254 (30%), Method: PREINCUBATION inactive; negative | Test System: AMES SALMONELLA TYPHIMURIUM, Strain/Indicator: TA100, Metabolic Activation: HAMSTER, LIVER, S-9, AROCLOR 1254 (10%), Method: PREINCUBATION inactive; negative | Test System: AMES SALMONELLA TYPHIMURIUM, Strain/Indicator: TA100, Metabolic Activation: HAMSTER, LIVER, S-9, AROCLOR 1254 (30%), Method: PREINCUBATION inactive; negative | [2] inactive; negative | Test System: AMES SALMONELLA TYPHIMURIUM, Strain/Indicator: TA100, Metabolic Activation: RAT, LIVER, S-9, AROCLOR 1254 (5%), Method: PREINCUBATION inactive; negative | Test System: AMES SALMONELLA TYPHIMURIUM, Strain/Indicator: TA100, Metabolic Activation: RAT, LIVER, S-9, AROCLOR 1254 (10%), Method: PREINCUBATION inactive; negative | Test System: AMES SALMONELLA TYPHIMURIUM, Strain/Indicator: TA100, Metabolic Activation: RAT, LIVER, S-9, AROCLOR 1254 (30%), Method: PREINCUBATION inactive; negative | Test System: AMES SALMONELLA TYPHIMURIUM, Strain/Indicator: TA1535, Metabolic Activation: HAMSTER, LIVER, S-9, AROCLOR 1254 (10%), Method: PREINCUBATION inactive; negative | Test System: AMES SALMONELLA TYPHIMURIUM, Strain/Indicator: TA1535, Metabolic Activation: HAMSTER, LIVER, S-9, AROCLOR 1254 (30%), Method: PREINCUBATION inactive; negative | Test System: AMES SALMONELLA TYPHIMURIUM, Strain/Indicator: TA1535, Metabolic Activation: NONE, Method: PREINCUBATION inactive; negative | Test System: AMES SALMONELLA TYPHIMURIUM, Strain/Indicator: TA1535, Metabolic Activation: RAT, LIVER, S-9, AROCLOR 1254 (10%), Method: PREINCUBATION inactive; negative | Test System: AMES SALMONELLA TYPHIMURIUM, Strain/Indicator: TA1535, Metabolic Activation: RAT, LIVER, S-9, AROCLOR 1254 (30%), Method: PREINCUBATION inactive; negative | Test System: AMES SALMONELLA TYPHIMURIUM, Strain/Indicator: TA1537, Metabolic Activation: HAMSTER, LIVER, S-9, AROCLOR 1254 (10%), Method: PREINCUBATION inactive; negative | Test System: AMES SALMONELLA TYPHIMURIUM, Strain/Indicator: TA1537, Metabolic Activation: HAMSTER, LIVER, S-9, AROCLOR 1254 (30%), Method: PREINCUBATION inactive; negative | Test System: AMES SALMONELLA TYPHIMURIUM, Strain/Indicator: TA1537, Metabolic Activation: RAT, LIVER, S-9, AROCLOR 1254 (10%), Method: PREINCUBATION inactive; negative | Test System: AMES SALMONELLA TYPHIMURIUM, Strain/Indicator: TA1537, Metabolic Activation: RAT, LIVER, S-9, AROCLOR 1254 (30%), Method: PREINCUBATION inactive; negative

CC(O)C(=O)NCCO (stereo unspecified)
active: [3] active; positive | [4] active; positive

CC1=C(Cl)C(=O)NC1=O
inactive: [5] inactive; negative

NNCCO
active: Test System: E. COLI, Strain/Indicator: WP2, Metabolic Activation: NONE, Method: STANDARD PLATE active; positive | Test System: E. COLI, Strain/Indicator: WP2, Metabolic Activation: RAT, LIVER, Method: STANDARD PLATE active; positive | Test System: E. COLI, Strain/Indicator: WP2HCR, Metabolic Activation: NONE, Method: STANDARD PLATE active; positive | Test System: E. COLI, Strain/Indicator: WP2HCR, Metabolic Activation: S-9 MIX, Method: STANDARD PLATE active; positive | Test System: E. COLI, Strain/Indicator: WP2 UVRA, Metabolic Activation: NONE, Method: STANDARD PLATE active; positive

Cc1nc2c(C)cc3c(nc(N)n3C)c2nc1C
active: [3] active; positive

Clc1cc(Cl)c(Cl)cc1Cl
inactive: End Point: IN VITRO CHROMOSOMAL ABERRATIONS, Test System: CHO-LB CELLS, Metabolic Activation: NONE inactive; negative | End Point: IN VITRO CHROMOSOMAL ABERRATIONS, Test System: CHO-LB CELLS, Metabolic Activation: RAT, LIVER, S-9, AROCLOR 1254 inactive; negative | Test System: AMES SALMONELLA TYPHIMURIUM, Strain/Indicator: TA98, Metabolic Activation: HAMSTER, LIVER, S-9, AROCLOR 1254, Method: STANDARD PLATE inactive; negative | Test System: AMES SALMONELLA TYPHIMURIUM, Strain/Indicator: TA98, Metabolic Activation: NONE, Method: STANDARD PLATE inactive; negative | [3] inactive; negative | Test System: AMES SALMONELLA TYPHIMURIUM, Strain/Indicator: TA100, Metabolic Activation: HAMSTER, LIVER, S-9, AROCLOR 1254, Method: STANDARD PLATE inactive; negative | [5] inactive; negative | Test System: AMES SALMONELLA TYPHIMURIUM, Strain/Indicator: TA100, Metabolic Activation: RAT, LIVER, S-9, AROCLOR 1254, Method: STANDARD PLATE inactive; negative | Test System: AMES SALMONELLA TYPHIMURIUM, Strain/Indicator: TA1535, Metabolic Activation: HAMSTER, LIVER, S-9, AROCLOR 1254, Method: STANDARD PLATE inactive; negative | Test System: AMES SALMONELLA TYPHIMURIUM, Strain/Indicator: TA1535, Metabolic Activation: NONE, Method: STANDARD PLATE inactive; negative | Test System: AMES SALMONELLA TYPHIMURIUM, Strain/Indicator: TA1535, Metabolic Activation: RAT, LIVER, S-9, AROCLOR 1254, Method: STANDARD PLATE inactive; negative | Test System: AMES SALMONELLA TYPHIMURIUM, Strain/Indicator: TA1537, Metabolic Activation: HAMSTER, LIVER, S-9, AROCLOR 1254, Method: STANDARD PLATE inactive; negative | Test System: AMES SALMONELLA TYPHIMURIUM, Strain/Indicator: TA1537, Metabolic Activation: NONE, Method: STANDARD PLATE inactive; negative | Test System: AMES SALMONELLA TYPHIMURIUM, Strain/Indicator: TA1537, Metabolic Activation: RAT, LIVER, S-9, AROCLOR 1254, Method: STANDARD PLATE inactive; negative | Test System: AMES SALMONELLA TYPHIMURIUM, Strain/Indicator: TA1538, Metabolic Activation: HAMSTER, LIVER, S-9, AROCLOR 1254, Method: STANDARD PLATE inactive; negative | Test System: AMES SALMONELLA TYPHIMURIUM, Strain/Indicator: TA1538, Metabolic Activation: NONE, Method: STANDARD PLATE inactive; negative | [4] inactive; negative | Test System: MOUSE LYMPHOMA, Strain/Indicator: L5178Y (TK+/TK-), Metabolic Activation: NONE, Method: SUSPENSION/PLATE inactive; negative. reevaluation of results: negative | Test System: MOUSE LYMPHOMA, Strain/Indicator: L5178Y (TK+/TK-), Metabolic Activation: RAT, LIVER, S-9, AROCLOR 1254, Method: SUSPENSION/PLATE inactive; negative. reevaluation of results: negative

CC(=O)OCc1ccccc1[N+](=O)[O-]
inactive: [1] inactive; negative | [2] inactive; negative | Test System: AMES SALMONELLA TYPHIMURIUM, Strain/Indicator: TA100, Metabolic Activation: RAT, LIVER, S-9, AROCLOR 1254, Method: PREINCUBATION inactive; negative
